# Several values for one entry are separate records, joined by “and”; a condition that tells them apart may be missing. Equal values may be shown once.
# Molecular target: T1, mouse Mfsd2a (Mus musculus, UniProt Q9DA75)
# T1 construct: expressed in transfected cells; host or cells: HEK293
# T1 sequence (Q9DA75 1-534): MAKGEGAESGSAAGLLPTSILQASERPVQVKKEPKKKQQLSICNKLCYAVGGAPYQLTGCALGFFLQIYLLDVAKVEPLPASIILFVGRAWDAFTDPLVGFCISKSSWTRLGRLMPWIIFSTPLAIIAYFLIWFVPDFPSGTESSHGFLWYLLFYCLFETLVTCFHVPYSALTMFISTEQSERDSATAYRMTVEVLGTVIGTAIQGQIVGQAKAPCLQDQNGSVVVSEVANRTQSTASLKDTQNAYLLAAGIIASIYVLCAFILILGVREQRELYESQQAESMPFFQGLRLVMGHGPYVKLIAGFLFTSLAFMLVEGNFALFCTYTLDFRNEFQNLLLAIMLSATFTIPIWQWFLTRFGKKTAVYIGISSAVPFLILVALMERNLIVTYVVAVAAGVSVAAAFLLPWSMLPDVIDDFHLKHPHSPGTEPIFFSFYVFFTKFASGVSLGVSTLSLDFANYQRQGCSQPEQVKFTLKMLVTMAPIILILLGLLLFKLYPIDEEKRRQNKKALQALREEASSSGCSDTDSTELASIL
# Experiment: Cell-based free fatty acid transport/uptake in Mfsd2a expressing HEK293 cells (mass spectrometry, TLC; Table 1)
# Settings: Mfsd2a HEK293 cells, 100 uM fatty acid/BSA overnight
# Method in brief: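 HEK293 cells expressing mouse Mfsd2a, or mock controls, were incubated overnight with 100 μM BSA-complexed fatty acids. Lipids were extracted in hexane:isopropanol (3:2) and phospholipid species quantified by HPLC-MS/MS against spiked internal standards. For TLC, cells received 100 μM [^14C]-oleate overnight, and phospholipids and neutral lipids were resolved.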
compound,measurement,value
CCCCCCCCCCCCCCCC(=O)O [Palmitic acid],PE34p:2 in total phospholipid,0.2893 mol percent and 0.2458 mol percent and 0.4295 mol percent
same,PE36:1 in total phospholipid,1.713 mol percent and 1.465 mol percent and 1.861 mol percent
same,PE36:2 in total phospholipid,2.152 mol percent and 2.192 mol percent and 2.267 mol percent
same,PE36:3 in total phospholipid,0.4629 mol percent and 0.5112 mol percent and 0.4773 mol percent
same,PE36:4 in total phospholipid,0.3125 mol percent and 0.2556 mol percent and 0.346 mol percent
same,PE36p:1 in total phospholipid,0.5555 mol percent and 0.4227 mol percent and 0.5608 mol percent
same,PE36p:2 in total phospholipid,0.7869 mol percent and 0.5996 mol percent and 0.6801 mol percent
same,PE36p:3 in total phospholipid,0.8448 mol percent and 0.8061 mol percent and 1.169 mol percent
same,PE36p:4 in total phospholipid,1.273 mol percent and 1.14 mol percent and 1.432 mol percent
same,PE38:1 in total phospholipid,0.4976 mol percent and 0.3342 mol percent and 0.5727 mol percent
same,PE38:2 in total phospholipid,0.3125 mol percent and 0.3342 mol percent and 0.3579 mol percent
same,PE38:3 in total phospholipid,0.6133 mol percent and 0.6685 mol percent and 0.6204 mol percent
same,PE38:4 in total phospholipid,0.9026 mol percent and 0.9732 mol percent and 1.301 mol percent
same,PE38:5 in total phospholipid,0.486 mol percent and 0.4227 mol percent and 0.5488 mol percent
same,PE38:6 in total phospholipid,0.2083 mol percent and 0.1081 mol percent and 0.1432 mol percent
same,PE38:7 in total phospholipid,0.08101 mol percent and 0.07864 mol percent and 0.04773 mol percent
same,PE38p:0 in total phospholipid,0.1273 mol percent and 0.118 mol percent and 0.1074 mol percent
same,PE38p:1 in total phospholipid,0.1504 mol percent and 0.1769 mol percent and 0.2744 mol percent
same,PE38p:2 in total phospholipid,0.3935 mol percent and 0.2359 mol percent and 0.3937 mol percent
same,PE38p:3 in total phospholipid,0.9721 mol percent and 0.8651 mol percent and 0.9426 mol percent
same,PE38p:4 in total phospholipid,0.9142 mol percent and 0.9437 mol percent and 1.086 mol percent
same,PE38p:5 in total phospholipid,0.9489 mol percent and 0.7569 mol percent and 0.8591 mol percent
same,PE38p:6 in total phospholipid,1.215 mol percent and 1.298 mol percent and 1.348 mol percent
same,PE40:3 in total phospholipid,0.08101 mol percent and 0.0983 mol percent and 0.1074 mol percent
same,PE40:4 in total phospholipid,0.1157 mol percent and 0.118 mol percent and 0.1909 mol percent
same,PE40:5 in total phospholipid,0.1504 mol percent and 0.1868 mol percent and 0.1909 mol percent
same,PE40:6 in total phospholipid,0.4282 mol percent and 0.3539 mol percent and 0.3699 mol percent
same,PE40p:4 in total phospholipid,0.1736 mol percent and 0.1769 mol percent and 0.3102 mol percent
same,PE40p:5 in total phospholipid,0.2893 mol percent and 0.2064 mol percent and 0.3341 mol percent
same,PE40p:6 in total phospholipid,0.6018 mol percent and 0.6095 mol percent and 0.4892 mol percent
same,PE42:7 in total phospholipid,0.06943 mol percent and 0.05898 mol percent and 0.09545 mol percent
same,PE42p:4 in total phospholipid,0.09258 mol percent and 0.1081 mol percent and 0.1074 mol percent
same,PI 32:1 in total phospholipid,0.01515 mol percent and 0.01528 mol percent and 0.0154 mol percent
same,PI 32:2 in total phospholipid,0.002439 mol percent and 0.002103 mol percent and 0.001294 mol percent
same,PI 34:1 in total phospholipid,0.1103 mol percent and 0.114 mol percent and 0.1029 mol percent
same,PI 34:2 in total phospholipid,0.0629 mol percent and 0.06982 mol percent and 0.06458 mol percent
same,PI 36:1 in total phospholipid,0.1503 mol percent and 0.1538 mol percent and 0.1543 mol percent
same,PI 36:2 in total phospholipid,0.3719 mol percent and 0.3721 mol percent and 0.3402 mol percent
same,PI 36:3 in total phospholipid,0.1684 mol percent and 0.1865 mol percent and 0.158 mol percent
same,PI 36:4 in total phospholipid,0.03864 mol percent and 0.0429 mol percent and 0.03921 mol percent
same,PI 38:2 in total phospholipid,0.3564 mol percent and 0.36 mol percent and 0.319 mol percent
same,PI 38:3 in total phospholipid,1.005 mol percent and 1.022 mol percent and 0.9636 mol percent
same,PI 38:4 in total phospholipid,0.3607 mol percent and 0.3811 mol percent and 0.3385 mol percent
same,PI 38:5 in total phospholipid,0.05186 mol percent and 0.04823 mol percent and 0.04943 mol percent
same,PI 38:6 in total phospholipid,0.006419 mol percent and 0.006589 mol percent and 0.006082 mol percent
same,PI 40:3 in total phospholipid,0.02721 mol percent and 0.02636 mol percent and 0.02342 mol percent
same,PI 40:4 in total phospholipid,0.01374 mol percent and 0.0136 mol percent and 0.01449 mol percent
same,PI 40:5 in total phospholipid,0.006419 mol percent and 0.00673 mol percent and 0.006341 mol percent
same,PI 40:6 in total phospholipid,0.008088 mol percent and 0.005328 mol percent and 0.005047 mol percent
same,PS(sum) in total phospholipid,2.6184 mol percent and 2.721 mol percent and 2.696 mol percent
same,PS:34:1 in total phospholipid,0.4034 mol percent and 0.439 mol percent and 0.4315 mol percent
same,PS:34:2 in total phospholipid,0.04042 mol percent and 0.03854 mol percent and 0.04968 mol percent
same,PS:36:1 in total phospholipid,1.063 mol percent and 1.166 mol percent and 1.107 mol percent
same,PS:36:2 in total phospholipid,0.3989 mol percent and 0.3832 mol percent and 0.387 mol percent
same,PS:36:3 in total phospholipid,0.02599 mol percent and 0.02171 mol percent and 0.02615 mol percent
same,PS:36:4 in total phospholipid,0.004537 mol percent and 0.005316 mol percent and 0.006102 mol percent
same,PS:38:2 in total phospholipid,0.2194 mol percent and 0.2087 mol percent and 0.231 mol percent
same,PS:38:3 in total phospholipid,0.1497 mol percent and 0.1471 mol percent and 0.1469 mol percent
same,PS:38:4 in total phospholipid,0.05651 mol percent and 0.07531 mol percent and 0.06102 mol percent
same,PS:38:5 in total phospholipid,0.007425 mol percent and 0.01063 mol percent and 0.01438 mol percent
same,PS:40:4 in total phospholipid,0.07342 mol percent and 0.05892 mol percent and 0.05971 mol percent
same,PS:40:5 in total phospholipid,0.04908 mol percent and 0.05626 mol percent and 0.06189 mol percent
same,PS:40:6 in total phospholipid,0.1089 mol percent and 0.09746 mol percent and 0.1011 mol percent
same,PS:40:7 in total phospholipid,0.01732 mol percent and 0.0124 mol percent and 0.01264 mol percent
same,Total PC + lysoPC in total phospholipid,67.6 mol percent and 68.89 mol percent and 64.689 mol percent
same,Total PE + lysoPE in total phospholipid,26.98 mol percent and 25.52 mol percent and 29.98 mol percent
same,Total PI + lysoPI in total phospholipid,2.796 mol percent and 2.866 mol percent and 2.638 mol percent

# Reference: patent publication US10175256B2, “Compositions and methods utilizing lysophosphatidylcholine scaffolds” (National University Of Singapore, priority 2013, dated 2019)
